Source: PMC10857328, “Utilization of Biopolymer-Based Lutein Emulsion as an Effective Delivery System to Improve Lutein Bioavailability in Neonatal Rats” (Nutrients, 2024)
Where two headings read alike, the source gives them in different places. Marks after values point to notes of the source that are not given here.

What was measured:
[1] = Acute dosing study: serum lutein kinetics, pharmacokinetic parameters and bioavailability; format: in vivo, neonatal Sprague-Dawley rats; conditions: 10 mg/kg body weight of lutein; for Serum lutein concentration: P10 pups
Experimental: To determine the bioavailability of lutein in neonatal Sprague-Dawley rats, an acute dosing study was conducted. The procedure was approved by the Institutional Animal Care and Use Committee of the University of Alabama (Number: 21-08-4864, 23 September 2021). On postnatal day 10 (P10), neonatal rats were randomly selected from litters and received a single dose of either free lutein (i.e., lutein ester dissolved in olive oil) or lutein emulsion, both containing 10 mg/kg body weight of lutein. The dose was administered to the pup’s mouth via a pipette. The concentration of lutein ester in the oil phase was 0.004 g/mL. The lutein dosage was selected based on our pilot study and previous studies. It is higher than the dosage used in human newborns but is considered acceptable and safe to be used in pharmacokinetic studies in rodent models. At 0.5 h, 1 h, 2 h, 4 h, 6 h, 12 h, and 24 h after dosing, pups (n = 3/time point/group) were euthanized, and blood, liver, spleen, brain, and eye were collected. Serum was obtained by centrifuging blood samples and tissues were stored at −80 °C until time of analysis. A group of rat pups (n = 3) not receiving treatments were used to measure the baseline lutein concentrations. Throughout the study, maternal rats consumed a purified diet with no lutein (D19120501, Research Diets Inc, New Brunswick, NJ, USA) (Table 1).
(§1) Serum and tissue lutein concentration was determined using an ultra-performance liquid chromatography (UPLC) system (Waters, Milford, MA, USA) equipped with a photo-diode array detector (PDA)/MS/MS, according to our well-established methods with slight modification. As for the serum, 100 μL of the sample was incubated with 2 mL of 100% ethanol at room temperature for an hour for lipid extraction. For the tissues, ~0.1 g of the sample was weighed, homogenized, and incubated with 2 mL of 100% ethanol at room temperature for an hour. An amount of 1 mL of 5% (w/v) potassium hydroxide was added to the sample and incubated in a water bath at 60 °C for 45 min for saponification. Upon saponification, samples were allowed to cool for about 15 min, and then an addition of 4 mL of hexane containing 0.1% butylated hydroxytoluene (w/v) and 2 mL of deionized water was added. The mixture was vortexed for 20 s and centrifuged at 1600 rpm at 25 °C for 15 min. The upper layer was collected following centrifugation and dried under nitrogen at 37 °C. The dried sample was then rinsed twice with hexane, dried, and reconstituted with 100 µL of acetonitrile-methanol. The reconstituted sample was centrifuged for 2 min to remove any possible precipitation. For UPLC analysis, 10 µL of the sample was injected into the Waters Acquity UPLC HSS T3 column. Solvent A was acetonitrile: methanol (50:50, v/v), and solvent B was 100% isopropanol. The mobile phase was made up of solvent A and solvent B in a volume ratio of 95:5 (v/v). The flow rate was set as 0.5 mL/min, and the column temperature was maintained at 35 °C. The detection wavelength was set at 446 nm. Retinyl acetate (Sigma-Aldrich, St. Louis, MO, USA) was used as the internal standard.
Bioavailability is defined as the rate and range of the active compound to the systemic circulation through a single oral administration. It can be evaluated by pharmacokinetic parameters derived from the compound kinetic curve (serum concentration vs. time). In the acute dosing study, pharmacokinetic parameters, including maximum lutein concentration (Cmax), time to reach Cmax (Tmax), and area under the time-concentration curve (AUC0–24) were determined. Cmax and Tmax were read directly from the serum lutein kinetic curve. The area under the time-concentration curve (AUC0–24) was calculated by trapezoid rule with linear interpolation using GraphPad Prism 8.0 (San Diego, CA, USA). […]

[2] = encapsulation technique Polymer, Mice, cited from earlier work
[3] = Daily dosing study 2 (maternal standard chow diet containing lutein): serum and tissue lutein concentrations; format: in vivo, neonatal Sprague-Dawley rats; conditions: 2 mg/kg daily oral P5-P18
Experimental: as §1, with “standard. To mimic the human dietary intake of lutein, daily dosing study 2 was conducted (Figure 1C). In this study, maternal rats consumed a standard rodent chow diet containing lutein from ingredients (i.e., ground corn) during pregnancy and lactation (Figure S2). The study design was similar to that of daily dosing study 1, except that a negative control group, in which rat pups were given olive oil from P5 to P18, was included in this study. Serum and tissue lutein concentrations were analyzed using the methods described in Section 2.3.2.” for “standard.”

[4] = maternal standard chow diet containing lutein
[5] = maternal standard chow diet containing lutein, listed as free lutein

Serum lutein concentration ([1]; 0.5 h after single oral dose): 0.00 ± 0.00 nmol/L | Serum lutein concentration ([1]; 6 h after single oral dose): 132.91 ± 64.96 nmol/L | Serum lutein concentration ([1]; 24 h after single oral dose): 43.16 ± 8.53 nmol/L | Tmax, time to reach Cmax (serum) ([1]; single oral dose): 4 h | Cmax ([1]; single oral dose, read-out: Cmax, maximum serum lutein concentration): 145 ± 49 nM | AUC0–24 ([1]; single oral dose, serum): 1987 ± 247.90 nmol/L∗h | Lutein concentration, BAT [3, 4]: 0.026 ± 0.014 ^a nmol/g | Lutein concentration, WAT [3, 4]: 0.34 ± 0.23 ^a nmol/g | Lutein concentration, brain [3, 4]: 0.06 ± 0.04 ^ab nmol/g | Lutein concentration, eye [3, 4]: 0.01 ± 0.003 ^c nmol/g | Lutein concentration, kidney [3, 4]: 0.12 ± 0.03 ^b nmol/g | Lutein concentration, liver [3, 4]: 1.23 ± 0.38 ^bc nmol/g | Lutein concentration, lung [3, 4]: 0.043 ± 0.007 ^a nmol/g | Lutein concentration, serum [3, 4]: 17.6 ± 4.39 nM | Lutein concentration, spleen [3, 4]: 0.58 ± 0.29 ^b nmol/g | Lutein concentration, serum ([3]; maternal standard chow diet containing lutein (Table 4)): 17.61 ± 4.39 ^b nmol/L | Lutein concentration, BAT [3, 5]: 0.026 ± 0.014 nmol/g | Lutein concentration, WAT [3, 5]: 0.34 ± 0.23 nmol/g | Lutein concentration, brain [3, 5]: 0.06 ± 0.04 nmol/g | Lutein concentration, eye [3, 5]: 0.01 ± 0.003 nmol/g | Lutein concentration, kidney [3, 5]: 0.12 ± 0.03 nmol/g | Lutein concentration, liver [3, 5]: 1.23 ± 0.38 nmol/g | Lutein concentration, lung [3, 5]: 0.043 ± 0.007 nmol/g
Substance: Lutein ester [Free Lutein]
Tmax (serum) ([2]; ref Arunkumar et al. (2015) [42]): 4 h | Tmax (serum) ([2]; ref Ranganathan et al. (2019) [57]): 4 h
